# Key:
# Sphaerotheca fuliginea = Sphaerotheca fuliginea potting method; assay type: in vivo; details: Podosphaera fuliginea; 100 mg/L; read-out: Sphaerotheca fuliginea control rating
# Experimental: The fungicidal activity of the control agents and target compounds are determined. The test and investigation method refers to SOP-SC-1101 sphaerotheca fuliginea potting method in disinfectant rolls written by KANGZHUO and GUBAOGEN in “Standard operation specification for testing biological activity of pesticides”.
# Erysiphe graminis = Erysiphe graminis potting method; assay type: in vivo; details: Blumeria graminis; 100 mg/L; read-out: Erysiphe graminis control rating
# Experimental: The fungicidal activity of the control agents and target compounds are determined. The test and investigation method refers to SOP-SC-1116 Erysiphe graminis potting method in disinfectant rolls written by KANGZHUO and GUBAOGEN in “Standard operation specification for testing biological activity of pesticides”.
# succinate dehydrogenase = molecular target: T1, succinate dehydrogenase (Sus scrofa, UniProt A5GZW8+D0VWV4+Q007T0); assay: Enzyme activity assay, succinate dehydrogenase (DCIP reduction); assay type: biochemical, porcine; details: read-out: Inhibitors (10 μM, SQR)
# T1 construct: isolated from porcine hearts; from tissue; host or cells: porcine heart
# T1 sequence (Q0QF01 43-664 partner): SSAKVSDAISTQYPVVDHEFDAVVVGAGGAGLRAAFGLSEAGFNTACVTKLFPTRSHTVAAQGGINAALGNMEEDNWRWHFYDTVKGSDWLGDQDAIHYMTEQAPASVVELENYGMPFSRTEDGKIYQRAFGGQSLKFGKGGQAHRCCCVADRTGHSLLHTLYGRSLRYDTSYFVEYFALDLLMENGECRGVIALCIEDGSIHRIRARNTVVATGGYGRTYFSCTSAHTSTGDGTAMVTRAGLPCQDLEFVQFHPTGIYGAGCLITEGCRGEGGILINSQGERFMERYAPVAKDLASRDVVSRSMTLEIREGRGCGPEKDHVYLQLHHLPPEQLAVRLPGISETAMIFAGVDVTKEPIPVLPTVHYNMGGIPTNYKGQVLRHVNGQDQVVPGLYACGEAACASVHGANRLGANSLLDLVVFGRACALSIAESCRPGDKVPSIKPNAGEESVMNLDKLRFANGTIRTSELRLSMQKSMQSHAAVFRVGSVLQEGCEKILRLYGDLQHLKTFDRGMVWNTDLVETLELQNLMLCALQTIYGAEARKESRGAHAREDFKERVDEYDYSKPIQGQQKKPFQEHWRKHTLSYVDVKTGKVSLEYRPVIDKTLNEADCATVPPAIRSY
# T1 sequence (Q007T0 29-280): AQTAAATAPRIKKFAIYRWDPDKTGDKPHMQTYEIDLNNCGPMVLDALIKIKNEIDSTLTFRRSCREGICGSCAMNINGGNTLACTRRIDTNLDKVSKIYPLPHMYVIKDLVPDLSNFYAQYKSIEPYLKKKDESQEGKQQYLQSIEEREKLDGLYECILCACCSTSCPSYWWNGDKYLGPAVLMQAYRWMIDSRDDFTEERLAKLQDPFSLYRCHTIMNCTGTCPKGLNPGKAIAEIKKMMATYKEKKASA
# T1 sequence (D0VWV4 30-169): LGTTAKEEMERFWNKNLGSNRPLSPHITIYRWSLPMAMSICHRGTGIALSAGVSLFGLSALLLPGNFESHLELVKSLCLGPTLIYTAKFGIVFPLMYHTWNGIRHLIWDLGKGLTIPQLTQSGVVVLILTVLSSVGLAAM
# T1 sequence (A5GZW8 57-159 limits assumed): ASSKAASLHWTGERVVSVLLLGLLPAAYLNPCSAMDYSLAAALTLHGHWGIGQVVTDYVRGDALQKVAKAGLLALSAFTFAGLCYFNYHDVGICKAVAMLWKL
# How it was run: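 Porcine heart succinate dehydrogenase (2 nM) in 100 mM sodium phosphate pH 7.4, 0.3 mM EDTA, 20 mM sodium succinate and 53 μM DCIP at 23° C with stirring. DCIP reduction followed at 600 nm (ε 21 mM^−1 cm^−1); linear slope minus baseline gives initial rate.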
smiles,measurement,setting,value
Cn1nc(C(F)F)c(C(=O)N(CC(=C(Cl)Cl)c2ccc(F)c(F)c2)C2CC2)c1F [Compound 130],pest or weed control at 100 µg/mL,Sphaerotheca fuliginea,80 to 100%
same,pest or weed control at 100 µg/mL,Erysiphe graminis,80 to 100%
same,inhibition at 10 µM,succinate dehydrogenase,> 90%
Cn1nc(C(F)F)c(C(=O)N(CC(=C(Cl)Cl)c2ccc(Br)cc2)C2CC2)c1F [Compound 131],pest or weed control at 100 µg/mL,Sphaerotheca fuliginea,80 to 100%
same,pest or weed control at 100 µg/mL,Erysiphe graminis,80 to 100%
same,inhibition at 10 µM,succinate dehydrogenase,> 90%
Cn1nc(C(F)F)c(C(=O)N(CC(=C(Cl)Cl)c2ccccc2Br)C2CC2)c1F [Compound 132],pest or weed control at 100 µg/mL,Sphaerotheca fuliginea,80 to 100%
same,pest or weed control at 100 µg/mL,Erysiphe graminis,80 to 100%
same,inhibition at 10 µM,succinate dehydrogenase,> 90%
Cn1nc(C(F)F)c(C(=O)N(CC(=C(Cl)Cl)c2cccc(Br)c2)C2CC2)c1F [Compound 133],pest or weed control at 100 µg/mL,Sphaerotheca fuliginea,80 to 100%
same,pest or weed control at 100 µg/mL,Erysiphe graminis,80 to 100%
same,inhibition at 10 µM,succinate dehydrogenase,> 90%
Cn1nc(C(F)F)c(C(=O)N(CC(=C(Cl)Cl)c2ccc(Br)cc2Br)C2CC2)c1F [Compound 134],pest or weed control at 100 µg/mL,Sphaerotheca fuliginea,80 to 100%
same,pest or weed control at 100 µg/mL,Erysiphe graminis,80 to 100%
same,inhibition at 10 µM,succinate dehydrogenase,> 90%
Cn1nc(C(F)F)c(C(=O)N(CC(=C(Cl)Cl)c2cc(Br)ccc2Br)C2CC2)c1F [Compound 135],pest or weed control at 100 µg/mL,Sphaerotheca fuliginea,80 to 100%
same,pest or weed control at 100 µg/mL,Erysiphe graminis,80 to 100%
same,inhibition at 10 µM,succinate dehydrogenase,> 90%
Cn1nc(C(F)F)c(C(=O)N(CC(=C(Cl)Cl)c2c(Br)cccc2Br)C2CC2)c1F [Compound 136],pest or weed control at 100 µg/mL,Sphaerotheca fuliginea,80 to 100%
same,pest or weed control at 100 µg/mL,Erysiphe graminis,80 to 100%
same,inhibition at 10 µM,succinate dehydrogenase,> 90%
Cn1nc(C(F)F)c(C(=O)N(CC(=C(Cl)Cl)c2c(Br)cc(Br)cc2Br)C2CC2)c1F [Compound 137],pest or weed control at 100 µg/mL,Sphaerotheca fuliginea,80 to 100%
same,pest or weed control at 100 µg/mL,Erysiphe graminis,80 to 100%
same,inhibition at 10 µM,succinate dehydrogenase,> 90%
Cn1nc(C(F)F)c(C(=O)N(CC(=C(Cl)Cl)c2ccc(Br)c(Br)c2)C2CC2)c1F [Compound 138],pest or weed control at 100 µg/mL,Sphaerotheca fuliginea,80 to 100%
same,pest or weed control at 100 µg/mL,Erysiphe graminis,80 to 100%
same,inhibition at 10 µM,succinate dehydrogenase,> 90%
Cc1cccc(C(CN(C(=O)c2c(C(F)F)nn(C)c2F)C2CC2)=C(Cl)Cl)c1 [Compound 139],pest or weed control at 100 µg/mL,Sphaerotheca fuliginea,80 to 100%
same,pest or weed control at 100 µg/mL,Erysiphe graminis,80 to 100%
same,inhibition at 10 µM,succinate dehydrogenase,> 90%
Cc1ccc(C(CN(C(=O)c2c(C(F)F)nn(C)c2F)C2CC2)=C(Cl)Cl)c(C)c1 [Compound 140],pest or weed control at 100 µg/mL,Sphaerotheca fuliginea,80 to 100%
same,pest or weed control at 100 µg/mL,Erysiphe graminis,80 to 100%
same,inhibition at 10 µM,succinate dehydrogenase,> 90%
Cc1ccc(C)c(C(CN(C(=O)c2c(C(F)F)nn(C)c2F)C2CC2)=C(Cl)Cl)c1 [Compound 141],pest or weed control at 100 µg/mL,Sphaerotheca fuliginea,80 to 100%
same,pest or weed control at 100 µg/mL,Erysiphe graminis,80 to 100%
same,inhibition at 10 µM,succinate dehydrogenase,> 90%
Cc1cccc(C)c1C(CN(C(=O)c1c(C(F)F)nn(C)c1F)C1CC1)=C(Cl)Cl [Compound 142],pest or weed control at 100 µg/mL,Sphaerotheca fuliginea,80 to 100%
same,pest or weed control at 100 µg/mL,Erysiphe graminis,80 to 100%
same,inhibition at 10 µM,succinate dehydrogenase,> 90%
Cc1cc(C)c(C(CN(C(=O)c2c(C(F)F)nn(C)c2F)C2CC2)=C(Cl)Cl)c(C)c1 [Compound 143],pest or weed control at 100 µg/mL,Sphaerotheca fuliginea,80 to 100%
same,pest or weed control at 100 µg/mL,Erysiphe graminis,80 to 100%
same,inhibition at 10 µM,succinate dehydrogenase,> 90%
Cc1ccc(C(C)C)cc1C(CN(C(=O)c1c(C(F)F)nn(C)c1F)C1CC1)=C(Cl)Cl [Compound 144],pest or weed control at 100 µg/mL,Sphaerotheca fuliginea,80 to 100%
same,pest or weed control at 100 µg/mL,Erysiphe graminis,80 to 100%
same,inhibition at 10 µM,succinate dehydrogenase,> 90%
Cc1ccc(C(C)C)c(C(CN(C(=O)c2c(C(F)F)nn(C)c2F)C2CC2)=C(Cl)Cl)c1 [Compound 145],pest or weed control at 100 µg/mL,Sphaerotheca fuliginea,80 to 100%
same,pest or weed control at 100 µg/mL,Erysiphe graminis,80 to 100%
same,inhibition at 10 µM,succinate dehydrogenase,> 90%
Cc1ccc(C(C)(C)C)c(C(CN(C(=O)c2c(C(F)F)nn(C)c2F)C2CC2)=C(Cl)Cl)c1 [Compound 146],pest or weed control at 100 µg/mL,Sphaerotheca fuliginea,80 to 100%
same,pest or weed control at 100 µg/mL,Erysiphe graminis,80 to 100%
same,inhibition at 10 µM,succinate dehydrogenase,> 90%
Cc1ccc(C(C)(C)C)cc1C(CN(C(=O)c1c(C(F)F)nn(C)c1F)C1CC1)=C(Cl)Cl [Compound 147],pest or weed control at 100 µg/mL,Sphaerotheca fuliginea,80 to 100%
same,pest or weed control at 100 µg/mL,Erysiphe graminis,80 to 100%
same,inhibition at 10 µM,succinate dehydrogenase,> 90%
Cc1cc(C(C)C)ccc1C(CN(C(=O)c1c(C(F)F)nn(C)c1F)C1CC1)=C(Cl)Cl [Compound 148],pest or weed control at 100 µg/mL,Sphaerotheca fuliginea,80 to 100%
same,pest or weed control at 100 µg/mL,Erysiphe graminis,80 to 100%
same,inhibition at 10 µM,succinate dehydrogenase,> 90%
Cc1ccccc1C(CN(C(=O)c1c(C(F)F)nn(C)c1F)C1CC1)=C(Cl)Cl [Compound 149],pest or weed control at 100 µg/mL,Sphaerotheca fuliginea,80 to 100%
same,pest or weed control at 100 µg/mL,Erysiphe graminis,80 to 100%
same,inhibition at 10 µM,succinate dehydrogenase,> 90%
Cc1ccc(C(CN(C(=O)c2c(C(F)F)nn(C)c2F)C2CC2)=C(Cl)Cl)cc1 [Compound 150],pest or weed control at 100 µg/mL,Sphaerotheca fuliginea,80 to 100%
same,pest or weed control at 100 µg/mL,Erysiphe graminis,80 to 100%
same,inhibition at 10 µM,succinate dehydrogenase,> 90%
Cc1ccc(C(CN(C(=O)c2c(C(F)F)nn(C)c2F)C2CC2)=C(Cl)Cl)cc1C [Compound 151],pest or weed control at 100 µg/mL,Sphaerotheca fuliginea,80 to 100%
same,pest or weed control at 100 µg/mL,Erysiphe graminis,80 to 100%
same,inhibition at 10 µM,succinate dehydrogenase,> 90%
Cc1cc(C)cc(C(CN(C(=O)c2c(C(F)F)nn(C)c2F)C2CC2)=C(Cl)Cl)c1 [Compound 152],pest or weed control at 100 µg/mL,Sphaerotheca fuliginea,80 to 100%
same,pest or weed control at 100 µg/mL,Erysiphe graminis,80 to 100%
same,inhibition at 10 µM,succinate dehydrogenase,> 90%
Cn1nc(C(F)F)c(C(=O)N(CC(=C(Cl)Cl)c2ccc(Cl)cc2F)C2CC2)c1F [Compound 153],pest or weed control at 100 µg/mL,Sphaerotheca fuliginea,80 to 100%
same,pest or weed control at 100 µg/mL,Erysiphe graminis,80 to 100%
same,inhibition at 10 µM,succinate dehydrogenase,> 90%
Cn1nc(C(F)F)c(C(=O)N(CC(=C(Cl)Cl)c2ccc(F)cc2Cl)C2CC2)c1F [Compound 154],pest or weed control at 100 µg/mL,Sphaerotheca fuliginea,80 to 100%
same,pest or weed control at 100 µg/mL,Erysiphe graminis,80 to 100%
same,inhibition at 10 µM,succinate dehydrogenase,> 90%
Cn1nc(C(F)F)c(C(=O)N(CC(=C(Cl)Cl)c2cc(Cl)ccc2F)C2CC2)c1F [Compound 155],pest or weed control at 100 µg/mL,Sphaerotheca fuliginea,80 to 100%
same,pest or weed control at 100 µg/mL,Erysiphe graminis,80 to 100%
same,inhibition at 10 µM,succinate dehydrogenase,> 90%
Cn1nc(C(F)F)c(C(=O)N(CC(=C(Cl)Cl)c2cc(C(F)(F)F)ccc2Cl)C2CC2)c1F [Compound 156],pest or weed control at 100 µg/mL,Sphaerotheca fuliginea,80 to 100%
same,pest or weed control at 100 µg/mL,Erysiphe graminis,80 to 100%
same,inhibition at 10 µM,succinate dehydrogenase,> 90%
Cn1nc(C(F)F)c(C(=O)N(CC(=C(Cl)Cl)c2cccc(C(F)(F)F)c2Cl)C2CC2)c1F [Compound 157],pest or weed control at 100 µg/mL,Sphaerotheca fuliginea,80 to 100%
same,pest or weed control at 100 µg/mL,Erysiphe graminis,80 to 100%
same,inhibition at 10 µM,succinate dehydrogenase,> 90%
Cn1nc(C(F)F)c(C(=O)N(CC(=C(Cl)Cl)c2ccc(C(F)(F)F)cc2Cl)C2CC2)c1F [Compound 158],pest or weed control at 100 µg/mL,Sphaerotheca fuliginea,80 to 100%
same,pest or weed control at 100 µg/mL,Erysiphe graminis,80 to 100%
same,inhibition at 10 µM,succinate dehydrogenase,> 90%
Cn1nc(C(F)F)c(C(=O)N(CC(=C(Cl)Cl)c2ccc(S(C)(=O)=O)cc2Cl)C2CC2)c1F [Compound 159],pest or weed control at 100 µg/mL,Sphaerotheca fuliginea,80 to 100%
same,pest or weed control at 100 µg/mL,Erysiphe graminis,80 to 100%
same,inhibition at 10 µM,succinate dehydrogenase,> 90%
Cn1nc(C(F)F)c(C(=O)N(CC(=C(Cl)Cl)c2cccc(S(C)(=O)=O)c2)C2CC2)c1F [Compound 160],pest or weed control at 100 µg/mL,Sphaerotheca fuliginea,80 to 100%
same,pest or weed control at 100 µg/mL,Erysiphe graminis,80 to 100%
same,inhibition at 10 µM,succinate dehydrogenase,> 90%
Cn1nc(C(F)F)c(C(=O)N(CC(=C(Cl)Cl)c2ccccc2S(C)(=O)=O)C2CC2)c1F [Compound 161],pest or weed control at 100 µg/mL,Sphaerotheca fuliginea,80 to 100%
same,pest or weed control at 100 µg/mL,Erysiphe graminis,80 to 100%
same,inhibition at 10 µM,succinate dehydrogenase,> 90%
Cn1nc(C(F)F)c(C(=O)N(CC(=C(Cl)Cl)c2cc(S(C)(=O)=O)ccc2Cl)C2CC2)c1F [Compound 162],pest or weed control at 100 µg/mL,Sphaerotheca fuliginea,80 to 100%
same,pest or weed control at 100 µg/mL,Erysiphe graminis,80 to 100%
same,inhibition at 10 µM,succinate dehydrogenase,> 90%
CCS(=O)(=O)c1ccc(C(CN(C(=O)c2c(C(F)F)nn(C)c2F)C2CC2)=C(Cl)Cl)cc1 [Compound 163],pest or weed control at 100 µg/mL,Sphaerotheca fuliginea,80 to 100%
same,pest or weed control at 100 µg/mL,Erysiphe graminis,80 to 100%
same,inhibition at 10 µM,succinate dehydrogenase,> 90%
